In brackets after ≈: the same amount, converted by molar mass. Several values for one entry are separate records, joined by “and”; a condition that tells them apart may be missing. Equal entries are not always repeated. Where two headings read alike, the source gives them in different places.
What was measured:
[1] = biological target: T1, human muscarinic M1 receptor (Homo sapiens, UniProt P11229); assay: Alphascreen Surefire phospho-ERK1/2 functional assay, M1; type: cell-based
T1 construct: expressed in transfected cells
T1 sequence (P11229 1-460): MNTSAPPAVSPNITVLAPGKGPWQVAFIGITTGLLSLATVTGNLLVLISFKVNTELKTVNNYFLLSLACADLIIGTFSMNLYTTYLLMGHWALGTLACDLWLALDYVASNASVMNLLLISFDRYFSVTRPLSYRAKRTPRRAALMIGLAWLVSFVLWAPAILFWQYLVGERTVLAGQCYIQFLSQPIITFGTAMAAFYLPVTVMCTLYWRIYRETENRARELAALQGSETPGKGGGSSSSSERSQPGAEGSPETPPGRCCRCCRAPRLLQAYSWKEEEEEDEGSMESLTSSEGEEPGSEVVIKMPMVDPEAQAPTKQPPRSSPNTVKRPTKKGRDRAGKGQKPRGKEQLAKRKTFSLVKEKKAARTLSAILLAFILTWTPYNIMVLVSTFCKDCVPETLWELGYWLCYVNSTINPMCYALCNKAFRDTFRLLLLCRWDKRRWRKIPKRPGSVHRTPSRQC
Procedure: ERK1/2 phosphorylation is a downstream consequence of both Gq/11 and Gi/o protein coupled receptor activation, making it highly suitable for the assessment of M1, M3 (Gq/11 coupled) and M2, M4 receptors (Gi/o coupled), rather than using different assay formats for different receptor subtypes. CHO cells stably expressing the human muscarinic M1, M2, M3 or M4 receptor were plated (25K/well) onto 96-well tissue culture plates in MEM-alpha+10% dialysed FBS. Once adhered, cells were serum-starved overnight. Agonist stimulation was performed by the addition of 5 μL agonist to the cells for 5 min (37° C.). Media was removed and 50 μL of lysis buffer added.

[2] = Hepatocyte stability, CLint (in vitro hepatocytes), mouse; type: in vitro ADME; settings: pooled cryopreserved hepatocytes, 1.0 million cells/mL, 37° C., read-out: in vitro intrinsic clearance (CLint)
Procedure: (§1) Hepatocyte stability assays were performed using pooled cryopreserved hepatocytes (Bioreclamation). Test compounds prepared in DMSO, were incubated at an initial concentration of 1 μM (0.25% DMSO final, n=2) with hepatocytes at cell densities of 1.0 million cells/mL at 37° C. Aliquots were removed at 0.5, 5, 10, 15, 30, 60 and 120 minutes for termination of reactions and compound extraction with acetonitrile containing an analytical internal standard (0.5 μM carbamazepine). Samples were centrifuged and the supernatant fractions analysed for parent compound by mass spectrometry (LC-MS/MS). The amount of compound remaining (expressed as %) was determined from the MS response in each sample relative to that in the T=0 samples (normalised for internal standard). Ln plots of the % remaining were used to determine the half-life for compound disappearance using the relationship: Half-Life(min)=−0.693/λ (where λ is the slope of the Ln % remaining vs time curve).

[3] = Hepatocyte stability, CLint (in vitro hepatocytes), monkey; type: in vitro ADME; settings: pooled cryopreserved hepatocytes, 1.0 million cells/mL, 37° C., read-out: in vitro intrinsic clearance (CLint)
Procedure: as §1

[4] = Hepatocyte stability, CLint (in vitro hepatocytes), human; type: in vitro ADME; settings: pooled cryopreserved hepatocytes, 1.0 million cells/mL, 37° C., read-out: in vitro intrinsic clearance (CLint)
Procedure: as §1

[5] = Aqueous solubility (thermodynamic), LCMS/MS method; type: physicochemical; settings: 1 mg/mL theoretical, individual replicates; for solubility thermodynamic at 4 h: 25 °C, thermodynamic from solid
Procedure: A 10 mM stock solution (in DMSO) was prepared for the test sample. From the 10 mM stock solution, a working solution of 1 μM was prepared by diluting the test sample in mobile phase solution (typically, methanol: 2 mM ammonium acetate containing suitable internal standard (IS)—carbamazepine/any other suitable IS). Further, the working solution was serially diluted in mobile phase solution up to 5 to 6 linearity point to prepare standard solution for plotting calibration curve. The area for each standard sample is analyzed in singlet using LCMS/MS. The normalized area values are plotted vs. concentration to achieve calibration equation to determine the unknown sample. […] Test compound was dispersed in buffer solution using a vortex mixer.
The resulting solution are then kept on RotoSpin (shaker) at 50 rpm for 4 hours for TD solubility at room temperature (25° C.). After the incubation period, the solution is filtered using 0.45 micron PVDF injector filters in order to remove the insoluble fraction of the compound. Filtrate is diluted in mobile phase and subsequently the AUC is ascertained for diluted samples using LCMS/MS. From the AUC of test sample the corresponding concentration is calculated using 5 to 6 point linearity/calibration curve.
All numbers reported as uM.

[6] = Unbound brain/unbound plasma concentration ratio (Kp,uu); type: in vivo; settings: brain and plasma (unbound); measured unbound plasma:brain distribution; parameter used in prediction; read-out: Kpuu (unbound brain/unbound plasma concentration)
Excerpt: Kp,uu—ratio of unbound brain concentration/unbound plasma concentration. Quantifies the net flux of drug across the blood brain barrier, including the quantitative role of transporters, without being confounded by nonspecific binding in plasma and brain tissues. Gupta et al, DMD, 2006; Hammarlund-Udenaes et al, PharmRes, 2008

[7] = biological target: T2, M1 receptor (Homo sapiens, UniProt P11229); assay: Predicted target engagement for human efficacious dose (allometric scaling)
T2 sequence (P11229 1-460): T1 sequence (P11229 1-460)
Excerpt: Based on a measured equivalent unbound plasma:brain distribution profile (Kpuu=1) the exposures shown represent those in either the plasma or brain compartment.

[8] = parameter used in human receptor occupancy prediction

Compound: CC(C)(C)NC(=O)C1CCN([C@H]2C[C@H]3CC[C@@H](C2)N3c2nc(C(F)(F)F)no2)CC1 [Example 1, N-tert-butyl-1-{(1R,3r,5S)-8-[3-(trifluoromethyl)-1,2,4-oxadiazol-5-yl]-8-azabicyclo[3.2.1]octan-3-yl}piperidine-4-carboxamide]
- EC50 ([1]; CHO cells stably expressing human M1, phospho-ERK1/2, read-out: pEC50 M1 (converted)): 67.6 nM
- EC50 ([1]; as quoted in FIG. 1 legend, 50% target engagement, read-out: recombinant human EC50 (M1) (converted)): 65.2 nM
- EC50 ([1]; recombinant human EC50 (M1), as quoted in FIG. 1 legend, 50% target engagement): 86 nM
- hepatocyte CLint at 1 μM [2]: 7 µL/min/1e6 cells
- hepatocyte CLint at 1 μM [3]: < 5 µL/min/1e6 cells
- hepatocyte CLint at 1 μM [4]: < 5 µL/min/1e6 cells
- Thermodynamic solubility, Blank FaSSIF pH 6.5 (n = 4) ([5]; Blank FaSSIF (Aq. Buffer) pH 6.5, 4 hours, 25° C.): 1941 uM and 1937 uM and 2022 uM
- solubility thermodynamic at 4 h ([5]; Blank FaSSIF (aqueous buffer), pH 6.5, aqueous buffer, Blank FaSSIF (Aq. Buffer) pH 6.5, 4 hours, read-out: Thermodynamic solubility, Blank FaSSIF pH 6.5 (n = 4)): 1740 µM (≈ 749 µg/mL)
- Thermodynamic solubility, FaSSIF pH 6.5 (n = 4) ([5]; FaSSIF pH 6.5, 4 hours, 25° C.): 2448 uM and 1713 uM and 2104 uM
- solubility thermodynamic at 4 h ([5]; FaSSIF, pH 6.5, fassif, FaSSIF pH 6.5, 4 hours, read-out: Thermodynamic solubility, FaSSIF pH 6.5 (n = 4)): 2010 µM (≈ 862 µg/mL)
- Thermodynamic solubility, SGF pH 1.2 (n = 4) ([5]; SGF pH 1.2, 4 hours, 25° C.): 1988 uM and 1702 uM and 2039 uM
- solubility thermodynamic at 4 h ([5]; SGF, pH 1.2, simulated gastric fluid, SGF pH 1.2, 4 hours, read-out: Thermodynamic solubility, SGF pH 1.2 (n = 4)): 2080 µM (≈ 893 µg/mL)
- Kp uu [6]: 1
- predicted dose to reach the unbound brain exposure required for M1 agonist efficacy ([7]; human, oral, 6 hours unbound brain exposure over recombinant M1 EC50): approx. 22 mg
- predicted human half-life ([7]; human, predicted from allometric scaling): 15 h
- CI (clearance) [7, 8]: 4.4 mL/min/kg
- F (bioavailability) [7, 8]: 0.61
- Ka [7, 8]: 1
- V [7, 8]: 5.9

Source: US11999745B2, “Pharmaceutical compounds” (Heptares Therapeutics Limited, priority 2020, dated 2024)
